Columns and labels:
G1H-G93A transgenic mice [1] = test: Exercise tolerance test: inclined plane test; assay type: in vivo, mouse; settings: for Inclined plane test score: 5 mg/kg oral daily from 80th day (before onset), score 0-3, 5 mg/kg; for effect in inclined plane test as compared to placebo group: 110th, 115th, 120th, 125th and 130th day, 5 mg/kg oral daily from 80th day after birth, Mann-Whitney's U test
Method: (§1) The following five kinds of exercise tolerance tests were conducted every fifth day from the 70th day after birth to evaluate the ability to exercise in the respective exercise tolerance tests. That is, the days for the exercise tolerance tests were every fifth days, such as the 70th day, 75th day, 80th day, 85th day and so on, after birth. The exercise tolerance tests were conducted throughout the survival period, and the post-mortem evaluation was based on the definitions of the following five kinds of exercise tolerance tests.
The apparatus used in the inclined plane test is an apparatus allowing a wooden board to be fixed at the respective angles of 45°, 65° and 80° from a horizontal plane. A mouse is placed in the posture of head-up position on the wooden board inclined at each angle and the mouse is allowed to maintain this position for 5 seconds without falling downward. In the evaluation method of the inclined plane test for each mouse, the number of seconds (TA seconds: 5 seconds or less) during which the position could be maintained without falling downward is measured at each of the angles (A) of 45°, 65° and 80°, and then the total sum value of the products of the angle (A) and the number of seconds (TA) during which the position could be maintained: Σ [Angle(A)×Time (TA)] is calculated. Since a normal mouse is capable of maintaining the position on the wooden board inclined to the respective angles for 5 seconds, the sum value of Σ [Angle(A)×Time (TA)] will be 80×5+65×5+45×5=950. The evaluation of the inclined plane test for the mouse was performed based on the following criteria: Score 0=950; Score 1=over 550 to less than 950; Score 2=over 225 to 550; and Score 3=225 and below. The post-mortem evaluation of the inclined plane test is defined as score 3.

G1H-G93A transgenic mice [2] = test: Exercise tolerance test: beam balance test; assay type: in vivo, mouse; settings: 5 mg/kg oral daily from 80th day (before onset), score 0-2
Method: as §1
The apparatus used in the beam balance test is constructed by maintaining a wooden beam having a diameter of 1.5 cm horizontally, and installing platforms which serve as footholds, on the respective sides in a distance of 30 cm. A mouse is placed on the platform on one side, and the time taken by the mouse to cross over the beam which is 30 cm in length and to arrive at the platform on the opposite side is measured. The evaluation of the beam balance test for the mouse was performed based on the following criteria: Score 0=The time is 10 seconds or less; Score 1=The time is more than 10 seconds to 15 seconds; and Score 2=The time is more than 15 seconds, or the mouse falls down. The post-mortem evaluation of the beam balance test is defined as score 2.

[3] = from the 125th day to 140th day after birth

Row | Structure (SMILES) | Inclined plane test score (G1H-G93A transgenic mice [1]; 70th day after birth) | Inclined plane test score (G1H-G93A transgenic mice [1]; 75th day after birth) | Inclined plane test score (G1H-G93A transgenic mice [1]; 80th day after birth) | Inclined plane test score (G1H-G93A transgenic mice [1]; 85th day after birth) | Inclined plane test score (G1H-G93A transgenic mice [1]; 90th day after birth) | Inclined plane test score (G1H-G93A transgenic mice [1]; 95th day after birth) | Inclined plane test score (G1H-G93A transgenic mice [1]; 100th day after birth) | Inclined plane test score (G1H-G93A transgenic mice [1]; 105th day after birth) | Inclined plane test score (G1H-G93A transgenic mice [1]; 110th day after birth) | effect in inclined plane test as compared to placebo group (G1H-G93A transgenic mice [1]) | Inclined plane test score (G1H-G93A transgenic mice [1]; 115th day after birth) | Inclined plane test score (G1H-G93A transgenic mice [1]; 120th day after birth) | Inclined plane test score (G1H-G93A transgenic mice [1]; 125th day after birth) | Inclined plane test score (G1H-G93A transgenic mice [1]; 130th day after birth) | Inclined plane test score (G1H-G93A transgenic mice [1]; 135th day after birth) | Inclined plane test score (G1H-G93A transgenic mice [1]; 140th day after birth) | Beam balance test score (G1H-G93A transgenic mice [2]; 70th day after birth, 5 mg/kg) | Beam balance test score (G1H-G93A transgenic mice [2]; 75th day after birth, 5 mg/kg) | Beam balance test score (G1H-G93A transgenic mice [2]; 80th day after birth, 5 mg/kg) | Beam balance test score (G1H-G93A transgenic mice [2]; 85th day after birth, 5 mg/kg) | other results
1 | Cc1nc(-c2ccc(OCC(C)C)c(C#N)c2)sc1C(=O)O [compound (c), 2-[3-cyano-4-(2-methylpropoxy)phenyl]-4-methyl-5-thiazolecarboxylic acid] | 0.0±0.0 | 0.0±0.0 | 0.0±0.0 | 0.0±0.0 | 0.0±0.0 | 0.0±0.0 | 0.0±0.0 | 0.0±0.0 | 0.0±0.0 | significant effects | 0.1±0.3 | 0.8±0.6 | 1.2±0.8 | 2.3±0.7 | 2.9±0.3 | 3.0±0.0 | 0.0±0.0 | 0.0±0.0 | 0.0±0.0 | 0.0±0.0 | Beam balance test score (G1H-G93A transgenic mice [2]; 90th day after birth, 5 mg/kg): 0.0±0.0; Beam balance test score (G1H-G93A transgenic mice [2]; 95th day after birth, 5 mg/kg): 0.0±0.0; Beam balance test score (G1H-G93A transgenic mice [2]; 100th day after birth, 5 mg/kg): 0.0±0.0; Beam balance test score (G1H-G93A transgenic mice [2]; 105th day after birth, 5 mg/kg): 0.0±0.0; Beam balance test score (G1H-G93A transgenic mice [2]; 110th day after birth, 5 mg/kg): 0.1±0.3; Beam balance test score (G1H-G93A transgenic mice [2]; 115th day after birth, 5 mg/kg): 0.7±0.8; Beam balance test score (G1H-G93A transgenic mice [2]; 120th day after birth, 5 mg/kg): 1.4±0.7; Beam balance test score (G1H-G93A transgenic mice [2]; 125th day after birth): 2.0 ± 0.0; Beam balance test score (G1H-G93A transgenic mice [2]; 130th day after birth): 2.0 ± 0.0; Beam balance test score (G1H-G93A transgenic mice [2]; 135th day after birth): 2.0 ± 0.0; Beam balance test score (G1H-G93A transgenic mice [2]; 140th day after birth): 2.0 ± 0.0; Beam balance test score (G1H-G93A transgenic mice [2]; [3]): 2.0±0.0
2 | CC(C)(C)COc1ccc(-n2cc(C(=O)O)cn2)cc1C#N [compound (a), 1-[3-cyano-4-(2,2-dimethylpropoxy)phenyl]-1H-pyrazole-4-carboxylic acid] | 0.0±0.0 | 0.0±0.0 | 0.0±0.0 | 0.0±0.0 | 0.0±0.0 | 0.0±0.0 | 0.0±0.0 | 0.0±0.0 | 0.0±0.0 | significant effects | 0.1±0.3 | 0.4±0.5 | 1.1±0.9 | 2.1±0.9 | 2.7±0.5 | 3.0±0.0 | 0.0±0.0 | 0.0±0.0 | 0.0±0.0 | 0.0±0.0 | Beam balance test score (G1H-G93A transgenic mice [2]; 90th day after birth, 5 mg/kg): 0.0±0.0; Beam balance test score (G1H-G93A transgenic mice [2]; 95th day after birth, 5 mg/kg): 0.0±0.0; Beam balance test score (G1H-G93A transgenic mice [2]; 100th day after birth, 5 mg/kg): 0.0±0.0; Beam balance test score (G1H-G93A transgenic mice [2]; 105th day after birth, 5 mg/kg): 0.0±0.0; Beam balance test score (G1H-G93A transgenic mice [2]; 110th day after birth, 5 mg/kg): 0.1±0.3; Beam balance test score (G1H-G93A transgenic mice [2]; 115th day after birth, 5 mg/kg): 0.7±0.8; Beam balance test score (G1H-G93A transgenic mice [2]; 120th day after birth, 5 mg/kg): 1.2±0.9; Beam balance test score (G1H-G93A transgenic mice [2]; 125th day after birth, 5 mg/kg): 1.7±0.5; Beam balance test score (G1H-G93A transgenic mice [2]; 130th day after birth): 2.0 ± 0.0; Beam balance test score (G1H-G93A transgenic mice [2]; 135th day after birth): 2.0 ± 0.0; Beam balance test score (G1H-G93A transgenic mice [2]; 140th day after birth): 2.0 ± 0.0; Beam balance test score (G1H-G93A transgenic mice [2]; from the 130th day to 140th day after birth): 2.0±0.0
3 | N#Cc1cc(-c2n[nH]c(-c3ccncc3)n2)ccn1 [compound (b), 4-(5-pyridin-4-yl-1H-[1,2,4]triazol-3-yl)pyridine-2-carbonitrile] | 0.0±0.0 | 0.0±0.0 | 0.0±0.0 | 0.0±0.0 | 0.0±0.0 | 0.0±0.0 | 0.0±0.0 | 0.0±0.0 | 0.0±0.0 | significant effects | 0.1±0.3 | 0.6±0.7 | 1.4±0.7 | 2.3±0.7 | 2.9±0.3 | 3.0±0.0 | 0.0±0.0 | 0.0±0.0 | 0.0±0.0 | 0.0±0.0 | Beam balance test score (G1H-G93A transgenic mice [2]; 90th day after birth, 5 mg/kg): 0.0±0.0; Beam balance test score (G1H-G93A transgenic mice [2]; 95th day after birth, 5 mg/kg): 0.0±0.0; Beam balance test score (G1H-G93A transgenic mice [2]; 100th day after birth, 5 mg/kg): 0.0±0.0; Beam balance test score (G1H-G93A transgenic mice [2]; 105th day after birth, 5 mg/kg): 0.0±0.0; Beam balance test score (G1H-G93A transgenic mice [2]; 110th day after birth, 5 mg/kg): 0.1±0.3; Beam balance test score (G1H-G93A transgenic mice [2]; 115th day after birth, 5 mg/kg): 0.6±0.7; Beam balance test score (G1H-G93A transgenic mice [2]; 120th day after birth, 5 mg/kg): 1.5±0.5; Beam balance test score (G1H-G93A transgenic mice [2]; 125th day after birth): 2.0 ± 0.0; Beam balance test score (G1H-G93A transgenic mice [2]; 130th day after birth): 2.0 ± 0.0; Beam balance test score (G1H-G93A transgenic mice [2]; 135th day after birth): 2.0 ± 0.0; Beam balance test score (G1H-G93A transgenic mice [2]; 140th day after birth): 2.0 ± 0.0; Beam balance test score (G1H-G93A transgenic mice [2]; [3]): 2.0±0.0
